Test results from article PMC10850501 (Nature Communications, 2024).
“Also recorded” adds a separate entry of the source. Where two headings read alike, the source gives them in different places. Peptide text beside a SMILES is read from it.

Columns and labels:
[1] = Cytocompatibility (CCK8); assay type: cell-based, human; conditions: human, A549 cells, read-out: cytocompatibility, normalized to serum free media; for viability at 6 h, 10 µM: 0.01 mM peptide; for viability at 6 h, 100 µM: 0.1 mM peptide; for viability at 6 h, 1000 µM: 1 mM peptide
Procedure: (§1) Cytocompatibility of the peptides was evaluated at 1, 0.1, and 0.01 mM with A549 cells (ATCC CCL-185) cultured in complete media consisting of 90% F-12K and 10% FBS. The A549 cells were utilized after their first passage and seeded at 10,000 cells/well in a 96-well plate for 24 hours. The conditions were prepared in serum-free A549 media and introduced into the wells for 6 hours, after which the condition media were aspirated, the wells were washed once with PBS, and 10 µL of CCK8 was added to 100 µL of PBS[32]. The plate was incubated for 1 hour and read on a Tecan M200 Infinite plate reader at an absorbance of 450 nm with a reference wavelength of 650 nm. The results were analyzed and normalized to the serum-free media control[28],[32],[76].

[2] = tested on: A549 cells; assay: Cytocompatibility (CCK8); assay type: cell-based, human; conditions: human alveolar epithelial A549 cells; 0.01-1 mM
Procedure: as §1

[3] = Subcutaneous bolus biocompatibility; assay type: in vivo, rat (female Wistar)
Procedure: The peptide hydrogel was prepared at 10 mg/mL in sterile saline and aspirated in sterile 1 mL syringes, with careful attention to avoid air bubbles. Female Wistar rats (225–250 g, 8–12 weeks old) were used for dorsal subcutaneous implantation. The rats were anesthetized using 2.5% isoflurane and […], after which the back of the rat’s hair was shaved and sterilized with 3 alternating applications of isopropanol and betadine. 200 µL boluses of the peptide hydrogel were injected with a 25 G needle at n = 4 for a time point of 7 days. After the time point, the animals were sacrificed, and the implant regions were collected and fixed overnight in 10% buffered formalin. The Rutgers Cancer Institute of New Jersey histology core processed the paraffin-embedded samples for histological evaluation after staining with hematoxylin and eosin and Masson’s Trichrome. Samples were also fixed in glutaraldehyde and formaldehyde, processed to eponate blocks, and sectioned with an ultramicrotome for electron microscopy imaging (above)[30],[76],[87].
Female Wistar rats (225–250 g, 8–12 weeks old) were observed and acclimatized for 2 weeks prior to running the studies. They were housed in a controlled environment with temperature at […] and 40–70% humidity. They were kept in an alternating 12-hour light/dark cycle, and food, and water was provided as pellets ad libitum. Female Wistar Rats were used for the pharmacokinetics and the drug clearance analysis from the blood. The two hydrogels (ESBP2 and ESBP3) at 10 mg/ml concentration were injected into the rats via the lateral tail vein. For subcutaneous implants, the substance was injected between the shoulder blades and above the lumbar vertebrae, 200 μL each, using a 25-gauge needle. The hydrogel bolus was prepared with 0.9% saline and was injected within 1–2 minutes. The volume injected was approximately 1% of the total body weight of the rat, which was calculated prior to the dosing. The initial blood draw was performed for baseline, and the subsequent blood collection was performed from the lateral vein using 25 g butterfly needles.

[4] = Intranasal repeat dose tolerability; assay type: in vivo, mouse (female C57BL/6); conditions: 25µL / nostril x 2 daily for 10 days in mice; histopathology H&E, MT
Procedure: Female C57BL/6 mice (15–20 g, 8–12 weeks old) were used for intranasal dosing of the peptide. As mentioned previously, 25 µl of hydrogels were injected into each of the nasal cavities twice daily at an interval of 8 hours for 10 days consecutively. The organs were harvested at the final time point, and sectioning was performed for histological evaluation. The plasma was also collected for quantifying peptide clearance in the bloodstream of the animal model.

[5] = Stability testing by HPLC / LC-MS; assay type: physicochemical
Procedure: Chromatographic analyses were performed on an analytical high-pressure liquid chromatography system (HPLC) with MassLynx software (Version 4.1). Runs were carried out on a Zorbax C3 column (5 µm, 150 mm × 4.6 mm) with a 1.0 mL/min flow rate. The mobile phase A was 0.1% trifluoroacetic acid in MilliQ water and mobile phase B was 0.1% trifluoroacetic acid in acetonitrile. Gradients started with mobile phase A at 75% and ran at a 1% ramp to 65% mobile phase B. Samples were diluted using 3:7 ACN:MilliQ water to a concentration of 1.0 mg/mL and then passed through a 0.22 μm syringe filter before injecting 30 μL of the sample. The column and autosampler were maintained at 40 °C and 25 °C, respectively. A Waters 2487 UV detector monitored 215 nm, and mass spectra were collected from 50 to 3000 AMU. The capillary voltage was 3.00 kV, cone voltage was 30.00 V, extractor voltage was 3.00 V, RF lens voltage was 0.1 V, source temperature was 100 °C, cone gas flow was 50.0 L/h, and desolvation gas flow was 500 L/h[30],[88] for the electrospray source.
[…] The stability of peptide samples was then measured using HPLC[87].

[6] = Ultracentrifugation pellet / solid-state NMR of assemblies; assay type: physicochemical; conditions: 10 mg/mL, 150,000 RCF, 30 minutes, 4 °C
Procedure: To experimentally validate E1:ESBP3 peptide mixtures, solid-state NMR experiments were pursued. ^13C solid-state NMR measurements were conducted using cross-polarization magic angle spinning (^1H-^13C CPMAS) to evaluate sample structural order and structural differences between samples. The peptides were not isotopically enriched, so the ^13C signal was from the 1% natural abundance for ^13C.
After peptide dissolution at 10 mg/mL, the samples were concentrated by ultracentrifugation for 30 minutes in Bruker 3.22 mm NMR rotors at 4 °C and 150,000 RCF in Ultra-clear tubes of SW-41 Ti swinging bucket rotor fitted onto a Beckman Optima XPN-100 centrifuge. A 11.75 T magnet Bruker Avance III HD 500 spectrometer (500 MHz, ^1H NMR Larmor frequency) equipped with a room temperature 3.2 mm Bruker Low-E ^1H/^13C/^15N NMR probe was used for measurements. ^13C chemical shift referencing was conducted using adamantane referenced to tetramethylsilane. 1D ^13C cross-polarization magic angle spinning (CPMAS) spectra were collected using the standard Bruker cp pulse sequence. A 10 kHz magic angle spinning speed was used for all samples. The channels frequency for the optimization of the Hartmann-Hahn condition for ^1H and ^13C are 500.133 MHz and 125.771 MHz, respectively. A recycle delay time of 4 seconds (d1) and dwell time of 5 μs (DW) were used. Acquisition time was set to 10.24 ms. […]

With `CC[C@H](C)[C@H](NC(=O)[C@H](Cc1ccc(O)cc1)NC(=O)[C@@H](NC(=O)[C@H](CCCCN)NC(=O)[C@H](Cc1ccc(O)cc1)NC(=O)[C@H](CCC(N)=O)NC(=O)CNC(=O)[C@H](CCC(=O)O)NC(=O)[C@H](CC(C)C)NC(=O)[C@H](CO)NC(=O)[C@H](CC(C)C)NC(=O)[C@H](CO)NC(=O)[C@H](CC(C)C)NC(=O)[C@H](CO)NC(=O)[C@H](CC(C)C)NC(=O)[C@H](CO)NC(=O)[C@H](CC(C)C)NC(=O)[C@H](CO)NC(=O)[C@H](CC(C)C)NC(=O)[C@H](CO)NC(=O)[C@H](CCC(=O)O)NC(C)=O)[C@@H](C)O)C(=O)N[C@@H](CC(=O)O)C(=O)N[C@@H](CCCCN)C(=O)N[C@@H](CC(N)=O)C(=O)N[C@@H](CC(N)=O)C(=O)N[C@@H](Cc1c[nH]cn1)C(=O)N[C@@H](Cc1ccc(O)cc1)C(=O)N[C@@H](C)C(=O)N[C@@H](CCC(=O)O)C(=O)N[C@@H](CC(=O)O)C(=O)N[C@@H](CCC(=O)O)C(=O)N[C@@H](CCCNC(=N)N)C(=O)N[C@@H](Cc1ccc(O)cc1)C(=O)N[C@@H](CCCCN)C(N)=O` [ESBP3] (Ac-ESLSLSLSLSLSLEGQYKTYIDKNNHYAEDERYK-NH2) the viability at 6 h, 10 µM ([1]; replicate 1, CCK8, 6 h) was 91.9%, the viability at 6 h, 10 µM ([1]; replicate 2, CCK8, 6 h) was 85.4% and the viability at 6 h, 100 µM ([1]; replicate 1, CCK8, 6 h) was 87.2%. For the same molecule, the viability at 6 h, 100 µM ([1]; replicate 2, CCK8, 6 h) was 97.6%, the viability at 6 h, 100 µM ([1]; replicate 3, CCK8, 6 h) was 85.4% and the viability at 6 h, 1000 µM ([1]; replicate 1, CCK8, 6 h exposure, absorbance 450 nm) was 106%. The viability at 6 h, 1000 µM ([1]; replicate 2, CCK8, 6 h) was 125%, the viability at 6 h, 1000 µM ([1]; replicate 3, CCK8, 6 h) was 119% and the “cytocompatibility, in words” value [2] was “excellent cytocompatibility”. The “peptide in plasma after subcutaneous bolus” value ([3]; 200 µL, 10 mg/mL, once, daily blood draws for 10 days) was “no detectable ESBP3”, the “subcutaneous bolus tolerability, in words” value ([3]; 200 µL, 10 mg/mL, once, rats, daily blood draws for 10 days) was “no significant body weight changes or adverse organ morphology; also recorded: no weight loss or adverse event” and the “histology of Sub-Q implanted boluses (H&E, Masson's Trichrome)” value ([3]; 7 days) was “infiltration of boluses with neutrophils/ macrophages”. The “intranasal repeat dosing safety, in words” value [4] was “no significant body weight changes or adverse organ morphology; also recorded: nasal turbinate showing no adverse effects; also recorded: no adverse toxicity”, the “stability of lyophilized peptide, in words” value ([5]; -20 °C, 4 °C, 25 °C and 37°C over 10 weeks, HPLC/LC-MS) was “exceptional” and the “stability, in words” value ([5]; lyophilized form and in formulation at a variety of temperatures over 12 weeks, HPLC) was “excellent stability”. The “degradation in aqueous formulation, in words” value ([5]; over 10 weeks, LC-MS) was “minimal” and the “ultracentrifuge pellet (assembly into nanofibers)” value [6] was “no pellet”.
